Measurements taken from the OligoGym collection.
Oligonucleotides are written 5' to 3', each unit as a sugar letter and its base; * is a phosphorothioate linkage, no mark a phosphodiester; rarer units and linkages stand in square brackets, end groups in braces. Plain capitals give the bases only. d = 2'-deoxy (DNA); r = 2'-OH (RNA)

molecular target: MRFAP1; assay: reporter assay of Huesken 2005; details: siRNA
Also: test concentration or dose not given here.

Row | Substance | normalised inhibition (eCFP-eYFP dual reporter)
1 | sense rGrUrArGrUrCrArArGrCrUrArUrArArArUrGrUdTdT / antisense rArCrArUrUrUrArUrArGrCrUrUrGrArCrUrArCdAdT | 88.3%
2 | sense rGrUrCrCrCrUrGrUrGrArCrArCrUrGrArGrArCdTdT / antisense rGrUrCrUrCrArGrUrGrUrCrArCrArGrGrGrArCdCdC | 43%
3 | sense rGrUrGrArGrCrCrGrUrCrCrGrCrGrGrUrUrUrCdTdT / antisense rGrArArArCrCrGrCrGrGrArCrGrGrCrUrCrArCdGdA | 72.2%
4 | sense rGrUrGrGrGrArGrArUrGrGrArCrArArUrArUrGdTdT / antisense rCrArUrArUrUrGrUrCrCrArUrCrUrCrCrCrArCdAdG | 79.7%
5 | sense rGrUrGrUrGrArGrArCrCrArArArGrGrArGrGrAdTdT / antisense rUrCrCrUrCrCrUrUrUrGrGrUrCrUrCrArCrArCdAdG | 98%
6 | sense rGrUrGrUrGrUrUrCrCrUrGrArArUrUrUrGrArGdTdT / antisense rCrUrCrArArArUrUrCrArGrGrArArCrArCrArCdCdA | 32.7%
7 | sense rGrUrUrCrCrUrGrArArUrUrUrGrArGrGrUrGrCdTdT / antisense rGrCrArCrCrUrCrArArArUrUrCrArGrGrArArCdAdC | 23.1%
8 | sense rUrArCrArCrGrGrCrUrArGrGrArCrUrGrArUrGdTdT / antisense rCrArUrCrArGrUrCrCrUrArGrCrCrGrUrGrUrAdAdG | 61.8%
9 | sense rUrArCrGrUrUrUrCrUrGrCrUrArUrGrGrUrCrUdTdT / antisense rArGrArCrCrArUrArGrCrArGrArArArCrGrUrAdGdT | 62.7%
10 | sense rUrArGrArArGrArGrGrArCrUrCrCrArUrGrCrAdTdT / antisense rUrGrCrArUrGrGrArGrUrCrCrUrCrUrUrCrUrAdGdA | 68.6%
11 | sense rUrArGrGrArCrUrGrArUrGrArCrCrUrGrGrGrAdTdT / antisense rUrCrCrCrArGrGrUrCrArUrCrArGrUrCrCrUrAdGdC | 70.4%
12 | sense rUrArUrCrCrCrCrArUrArUrArUrUrUrGrArGrGdTdT / antisense rCrCrUrCrArArArUrArUrArUrGrGrGrGrArUrAdCdC | 48.6%
13 | sense rUrCrArCrCrGrCrCrUrCrUrGrArArArGrUrUrCdTdT / antisense rGrArArCrUrUrUrCrArGrArGrGrCrGrGrUrGrAdGdC | 45.5%
14 | sense rUrCrArUrUrCrCrUrGrGrCrUrUrUrGrGrUrGrUdTdT / antisense rArCrArCrCrArArArGrCrCrArGrGrArArUrGrAdAdC | 52.6%
15 | sense rUrCrCrArGrArUrCrArArGrArCrGrCrArGrGrUdTdT / antisense rArCrCrUrGrCrGrUrCrUrUrGrArUrCrUrGrGrAdTdC | 54.6%
16 | sense rUrCrCrCrUrGrArArCrUrUrUrGrGrGrUrCrCrCdTdT / antisense rGrGrGrArCrCrCrArArArGrUrUrCrArGrGrGrAdGdC | 53.3%
17 | sense rUrCrCrUrGrGrCrUrUrUrGrGrUrGrUrGrUrUrCdTdT / antisense rGrArArCrArCrArCrCrArArArGrCrCrArGrGrAdAdT | 66.9%
18 | sense rUrCrGrCrUrGrArCrGrCrGrCrGrArGrCrGrCrGdTdT / antisense rCrGrCrGrCrUrCrGrCrGrCrGrUrCrArGrCrGrAdCdG | 14%
19 | sense rUrCrGrGrArGrGrArUrUrGrUrArUrUrGrUrUrUdTdT / antisense rArArArCrArArUrArCrArArUrCrCrUrCrCrGrAdCdC | 54.7%
20 | sense rUrCrGrUrGrCrArGrArCrArArGrCrArArArGrCdTdT / antisense rGrCrUrUrUrGrCrUrUrGrUrCrUrGrCrArCrGrAdCdA | 67.6%
